Data as given in article PMC10177692, “Novel topoisomerase II/EGFR dual inhibitors: design, synthesis and docking studies of naphtho[2′,3′:4,5]thiazolo[3,2-a]pyrimidine hybrids as potential anticancer agents with apoptosis inducing activity” (Journal of Enzyme Inhibition and Medicinal Chemistry, 2023).
Where two headings read alike, the source gives them in different places.

What was measured:
[1] = molecular target: T1, topoisomerase IIα (Homo sapiens, UniProt P11388); test: Topoisomerase IIα inhibitory activity (ELISA kit); format: cell-based; details: MCF-7 cell line; for % inhibition of topoisomerase IIα activity: compounds at their IC50, compared to control; for concentration of topoisomerase IIα: compounds at their IC50, control 3.663 ± 0.09 ng/ml
T1 construct: it decreases the concentration of topoisomerase iIα in MCF-7 cell line to 1.043 ± 0.10 ng/ml; endogenous in cells; host or cells: MCF-7
T1 sequence (P11388 whole entry): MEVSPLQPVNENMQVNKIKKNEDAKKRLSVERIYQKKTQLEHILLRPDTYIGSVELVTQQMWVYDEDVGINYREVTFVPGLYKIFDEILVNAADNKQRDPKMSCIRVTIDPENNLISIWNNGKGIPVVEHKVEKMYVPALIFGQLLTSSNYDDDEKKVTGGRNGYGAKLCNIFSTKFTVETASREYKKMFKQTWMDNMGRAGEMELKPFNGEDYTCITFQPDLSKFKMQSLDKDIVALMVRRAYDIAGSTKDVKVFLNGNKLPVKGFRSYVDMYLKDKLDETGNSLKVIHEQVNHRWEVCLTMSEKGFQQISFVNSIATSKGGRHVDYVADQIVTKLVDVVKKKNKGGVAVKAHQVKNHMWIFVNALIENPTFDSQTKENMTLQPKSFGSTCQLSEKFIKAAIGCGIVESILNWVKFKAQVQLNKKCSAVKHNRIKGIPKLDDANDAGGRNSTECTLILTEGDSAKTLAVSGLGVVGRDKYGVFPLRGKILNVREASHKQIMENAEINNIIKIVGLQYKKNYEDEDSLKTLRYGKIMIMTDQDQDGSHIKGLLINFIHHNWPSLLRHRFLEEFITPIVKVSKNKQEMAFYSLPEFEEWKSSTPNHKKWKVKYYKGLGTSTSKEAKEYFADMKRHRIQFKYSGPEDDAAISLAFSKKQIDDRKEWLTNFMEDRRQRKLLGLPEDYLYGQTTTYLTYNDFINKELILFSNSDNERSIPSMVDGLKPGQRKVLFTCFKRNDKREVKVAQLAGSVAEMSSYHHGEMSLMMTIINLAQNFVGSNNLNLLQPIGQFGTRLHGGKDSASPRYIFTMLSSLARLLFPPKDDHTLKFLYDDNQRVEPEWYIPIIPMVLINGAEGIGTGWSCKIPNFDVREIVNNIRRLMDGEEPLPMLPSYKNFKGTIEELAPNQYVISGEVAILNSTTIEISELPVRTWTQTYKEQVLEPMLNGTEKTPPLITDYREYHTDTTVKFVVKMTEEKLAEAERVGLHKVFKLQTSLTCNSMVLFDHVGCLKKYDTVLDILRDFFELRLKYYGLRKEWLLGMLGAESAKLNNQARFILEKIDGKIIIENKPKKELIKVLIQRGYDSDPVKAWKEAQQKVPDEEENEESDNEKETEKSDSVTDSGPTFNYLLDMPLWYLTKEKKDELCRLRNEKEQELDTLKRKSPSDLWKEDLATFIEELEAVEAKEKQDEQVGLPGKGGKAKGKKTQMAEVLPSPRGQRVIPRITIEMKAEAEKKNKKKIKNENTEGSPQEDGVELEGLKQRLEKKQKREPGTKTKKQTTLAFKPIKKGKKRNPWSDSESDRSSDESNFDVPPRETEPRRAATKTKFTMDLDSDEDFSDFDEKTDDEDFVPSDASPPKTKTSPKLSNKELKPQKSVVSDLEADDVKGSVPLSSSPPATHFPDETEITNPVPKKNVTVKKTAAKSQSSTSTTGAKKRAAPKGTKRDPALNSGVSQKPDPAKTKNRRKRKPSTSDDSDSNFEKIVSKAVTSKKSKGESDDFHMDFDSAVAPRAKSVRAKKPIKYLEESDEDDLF
Method: Biotin-conjugated antibody was added to each well followed by incubation at 37 °C for 1 h, then the plates were aspirated. Avidin conjugated Horseradish Peroxidase (HRP avidin) solution was added to each well, incubated again at 37 °C for 1 h. TMB substrate was added to the wells and the plate was incubated at 37 °C for 30 min at dark place. The absorbance was read using spectrophotometer at a wavelength of 450 nm.

[2] = test system: Bcl-2; test: Bcl-2 level ELISA in MCF-7 cells; format: cell-based, human; details: for Bcl-2 Conc.(ng/ml): MCF-7, at IC50, 24 h, control 6.56 ± 0.22; for Bcl-2 FLD: MCF-7, at IC50, fold of control cells
Method: MCF-7 cells were cultured in DMEM supplied with 10% FBS and incubated in 5% CO2 in air at 37 °C. […] Cell lysate was diluted using standard diluent buffer over the range of assay. Bax and Bcl-2 content in the lysate was assessed using human Bax ELISA kit (DRG, USA) and Bcl-2 ELISA Kit (Zymed Laboratories, Invitrogen Immuno-detection, Canada), respectively, according to the manufacturer’s instructions for each kit. The results were expressed as Mean ± SE of three independent experiments.

[3] = test system: MCF-7; test: MTT anti-proliferative assay; format: cell-based, human; details: for IC50: Homo sapiens, MCF7
Method: (§1) The culture media were supplemented with 10% heat inactivated foetal bovine serum (FBS, HyClone, Thermo Scientific) and antibiotics (100 U/ml penicillin and 100 µg/ml streptomycin, HyClone, Thermo Scientific). The cells were incubated in a humidified atmosphere containing 5% CO2 (Heracell VIOS CO2 incubator, Thermo Scientific) in air at 37 °C.
(§2) MTT reagent, at volume equal to 10% of the culture medium volume, was added to the cultured cells and to the blank wells. The culture plates were re-incubated for 2–4 h depending on cell type and density. After the incubation period, culture plates were restored from the incubator and the obtained formazan crystals were dissolved in acidified isopropanol with continuous shaking using plate shaker (MaxQ 2000, Thermo Fisher Scientific Inc., MI, USA) at room temperature. Absorbance was measured spectrophotometrically at wavelength 570 nm using a plate reader (Stat FaxR 4200, Awareness Technology, Inc., FL, USA). […] Three independent experiments were performed for each compound and Mean ± SE were calculated.

[4] = test system: HCT-116; test: MTT anti-proliferative assay; format: cell-based, human; details: for IC50: Homo sapiens, HCT-116, MTT, 24 h, mean ± SE of three experiments, read-out: IC50 (µM) ± S.E. HCT-116
Method: as §1, §2

[5] = test system: A549; test: MTT anti-proliferative assay; format: cell-based, human; details: for IC50: Homo sapiens, A549, MTT, 24 h, mean ± SE of three experiments, read-out: IC50 (µM) ± S.E. A549
Method: as §1, §2

[6] = test system: caspase-9; test: Caspase-9 ELISA in MCF-7 cells; format: cell-based, human; details: for Caspase 9 Conc.(pg/ml): MCF-7, at IC50, control 4.51 ± 0.29
Method: (§3) The effect of 6a, 6c and 6i hybrids on caspase-7 and −9 levels in MCF-7 cell line was measured using Human Caspase-7 ELISA Kit (BioVision Inc., Milpitas, CA 95035 USA) and Human Caspase-9 ELISA Kit (EIA-4860, DRG, USA), respectively, and according to the manufacturer’s instructions. The results were expressed as Mean ± SE of three independent experiments.

[7] = test system: MCF-7 cells; test: Annexin V-FITC/PI staining assay; format: cell-based, human; set-up: Apoptosis Total / Apoptosis Early / Apoptosis Late / Necrosis: unit not given here; details: for increase in cell necrosis compared to control / increase of cell population in early apoptotic stage compared to control / increase of late apoptotic cell population compared to control: MCF-7, at IC50; for Apoptosis Late / Apoptosis Early / Necrosis / Apoptosis Total: MCF-7, at IC50, 24 h; for Apoptosis Late: control 0.15; for Apoptosis Early: control 0.38; for Necrosis: control 1.36; for Apoptosis Total: control 1.89
Method: Cells underwent three washing cycles using ice cold PBS, then suspended in PBS. Cell apoptosis was detected by Annexin V-FITC Apoptosis Detection Kit (BioVisionResearch Products, USA). The cells were stained using PI staining solution, Annexin V-FITC and incubated for 15 min at room temperature in a dark place. Cells were investigated by flow cytometry (Ex = 488 nm; Em = 530 nm) using FACS calibre (Becton Dickinson, Heidelberg, Germany)[48].

[8] = test system: caspase-7; test: Caspase-7 ELISA in MCF-7 cells; format: cell-based, human; details: for Caspase 7 FLD: MCF-7, at IC50, fold of control; for Caspase 7 Conc.(ng/ml): MCF-7, at IC50, control 0.45 ± 0.03
Method: as §3

[9] = test system: p53; test: p53 level ELISA in MCF-7 cells; format: cell-based, human; details: for p53 FLD: MCF-7, at IC50, fold of control cells; for p53 Conc.(pg/ml): control 257 ± 19.1
Method: p53 level was determined in MCF-7 cell line using Human p53 ELISA Kit (Sigma Aldrich, St. Louis, MO, USA). The cells were lysed using cell extraction buffer. Cell lysate was diluted with standard diluent buffer, then added to p53 monoclonal antibody pre-coated 96-wells plate. The plate incubated for 2 h at room temperature. Anti-p53 detection antibody was added to the plate and re-incubated at room temperature for 1 h. The plate washed four times using wash buffer followed by addition of anti-rabbit IgG-Horseradish Peroxidase (HRP) working solution. The plate incubated at room temperature for 30 min. Chromogen TMB (tetramethylbenzidine) was added to induce colour reaction. The absorbance of the plate was read at 450 nm using microplate reader (Bio-Rad Laboratories, Hercules, CA, USA). Three independent experiments were performed for each compound and Mean ± SE were calculated.

[10] = test system: MCF-7 cells; test: In vitro DNA flow cytometry (cell cycle analysis); format: cell-based, human; details: MCF-7, at IC50, 24 h; for DNA content %Pre-G1: control 1.89; for DNA content %G2/M: control 7.68; for DNA content %S: control 35.09; for DNA content %G0-G1: control 57.23
Method: MCF-7 cells were seeded at density of 2 × 10^5 into each well of a 6-well plate. The cells were maintained in Dulbecco’s Modified Eagle’s Medium (DMEM), supplied with 10% foetal bovine serum, and incubated in a humidified atmosphere containing 5% CO2 in air for 24 h at 37 °C. The incubation medium was replaced with a fresh one containing the synthesised hybrids 6a and 6i at their IC50 in DMSO (1% v/v). The cell plates were incubated for 24 h. The cells were washed twice with cold phosphate buffered saline (PBS) then fixed with 70% ice-cold ethanol. Cells washed with PBS at 37 °C for 30 min and recovered by centrifugation at 2000 rpm for 5 min. Cells were stained using DNA fluorochrome propidium iodide (PI). The plates were incubated at room temperature for 20 min in a dark place. Then the cells were investigated with a FACS Calibre flow cytometer (Becton Dickinson, Heidelberg, Germany)[48].

[11] = MCF-7, concentration used for treatment, read-out: IC50 µM (Table 4)
[12] = MCF-7, concentration used for treatment, read-out: IC50 (Table 2)
[13] = MCF-7, concentration used for treatment, read-out: IC50 (Table 3)
[14] = MTT, 24 h, mean ± SE of three experiments, read-out: IC50 (µM) ± S.E. MCF-7

| Structure (SMILES) | % inhibition of topoisomerase IIα activity [1] [%] | concentration of topoisomerase IIα [1] [ng/mL] | Bcl-2 Conc.(ng/ml) [2] [ng/mL] | Bcl-2 FLD [2] [fold] | IC50 [3, 11] [µM] | IC50 [3, 12] [µM] | IC50 [3, 13] [µM] | IC50 [3, 14] [µM] | IC50 [4] [µM] | IC50 [5] [µM] | Caspase 9 Conc.(pg/ml) [6] [pg/mL] | increase in cell necrosis compared to control [7] [folds] | increase of cell population in early apoptotic stage compared to control [7] [folds] | increase of late apoptotic cell population compared to control [7] [folds] | Apoptosis Late [7] | Apoptosis Early [7] | Necrosis [7] | Apoptosis Total [7] | Caspase 7 FLD [8] [fold] | Caspase 7 Conc.(ng/ml) [8] [ng/mL] | further results |
| --- | --- | --- | --- | --- | --- | --- | --- | --- | --- | --- | --- | --- | --- | --- | --- | --- | --- | --- | --- | --- | --- |
| COc1ccc(-c2nc3sc4c(n3c(=O)c2C#N)C(=O)c2ccccc2C4=O)cc1 [Compound 6a, 2–(4-Methoxyphenyl)-4,6,11-trioxo-6,11-dihydro-4H-naphtho[2′,3′:4,5]-thiazolo[3,2-a]pyrimidine-3-carbonitrile] | 35.81 | 2.351 ± 0.21 | 3.99 ± 0.24 | 0.61 | 3.34 | 3.34 | 3.34 | 3.34 ± 0.21 | 3.58 ± 0.24 | 2.81 ± 0.18 | 21.17 ± 0.38 | 6.78 | 13.84 | 126.13 | 18.92 | 5.26 | 9.23 | 33.41 | 14.93 | 6.72 ± 0.23 | Caspase 9 FLD ([6]; MCF-7, at IC50, fold of control): 4.69 fold; p53 FLD [9]: 3.6 fold; p53 Conc.(pg/ml) ([9]; MCF-7, at IC50): 922 ± 37.5 pg/mL; DNA content %Pre-G1 [10]: 33.41%; DNA content %G2/M [10]: 34.78%; DNA content %S [10]: 28.94%; DNA content %G0-G1 [10]: 36.28% |
| N#Cc1c(-c2ccc([N+](=O)[O-])cc2)nc2sc3c(n2c1=O)C(=O)c1ccccc1C3=O [Compound 6i, 2–(4-Nitrophenyl)-4,6,11-trioxo-6,11-dihydro-4H-naphtho[’',’':4,5]thiazolo-[3,2-a]pyrimidine-3-carbonitrile] | 71.50 | 1.043 ± 0.10 | 3.64 ± 0.08 | 0.55 | 1.79 | 1.79 | 1.79 | 1.79 ± 0.11 | 2.29 ± 0.18 | 1.55 ± 0.13 | 32.29 ± 0.33 | 10.52 | 9.57 | 182.06 | 27.31 | 3.64 | 14.31 | 45.26 | 20.41 | 9.20 ± 0.87 | fold superior activity than Dox ([3]; MCF-7, ratio of IC50 values): 3.13 fold; fold the activity of erlotinib ([3]; MCF-7, ratio of IC50 values): 4.05 fold; fold superior activity than Dox ([4]; HCT-116, ratio of IC50 values): 2.96 fold; fold the activity of erlotinib ([4]; HCT-116, ratio of IC50 values): 3.77 fold; fold superior activity than Dox ([5]; A549, ratio of IC50 values): 3.19 fold; fold the activity of erlotinib ([5]; A549, ratio of IC50 values): 3.35 fold; increase in p53 level compared to Dox treated cells ([9]; MCF-7, at IC50): 1.2 fold; p53 FLD [9]: 5 fold; p53 Conc.(pg/ml) ([9]; MCF-7, at IC50): 1285 ± 29.9 pg/mL; DNA content %Pre-G1 [10]: 45.26%; DNA content %G2/M [10]: 2.89%; DNA content %S [10]: 51.17%; DNA content %G0-G1 [10]: 45.94% |
